Experimental data taken from ChEMBL document CHEMBL1140270, “Synthesis and biological evaluation of new biphalin analogues with non-hydrazine linkers” (Bioorg Med Chem Lett, 2005).
pIC50: −log10 of the molar value.

Tests used:
[1] = In vitro inhibition of [3H]DAMGO binding to Opioid receptor mu
[2] = In vitro inhibition of [3H]DPDPE binding to Opioid receptor delta
[3] = biological target: Delta-type opioid receptor (Mus musculus) (UniProt P32300); test: Percent inhibition against Opioid receptor delta in mouse vas deferens; format: functional, tissue-based; conditions: concentration not given here
[4] = biological target: Mu-type opioid receptor (Cavia porcellus) (UniProt P97266); test: Percent inhibition against Opioid receptor mu in guinea pig ileum/longitudinal muscle myenteric plexus; format: functional, tissue-based; conditions: concentration not given here
Mu-type opioid receptor = Mu-type opioid receptor (Cavia porcellus, UniProt P97266); test: In vitro agonist activity against Opioid receptor mu in guinea pig ileum/longitudinal muscle myenteric plexus; format: functional, tissue-based
[5] = biological target: Delta-type opioid receptor (Mus musculus, UniProt P32300); test: In vitro agonist activity against Opioid receptor delta in mouse vas deferens; format: functional, tissue-based
Delta-type opioid receptor, sequence (P32300 whole entry): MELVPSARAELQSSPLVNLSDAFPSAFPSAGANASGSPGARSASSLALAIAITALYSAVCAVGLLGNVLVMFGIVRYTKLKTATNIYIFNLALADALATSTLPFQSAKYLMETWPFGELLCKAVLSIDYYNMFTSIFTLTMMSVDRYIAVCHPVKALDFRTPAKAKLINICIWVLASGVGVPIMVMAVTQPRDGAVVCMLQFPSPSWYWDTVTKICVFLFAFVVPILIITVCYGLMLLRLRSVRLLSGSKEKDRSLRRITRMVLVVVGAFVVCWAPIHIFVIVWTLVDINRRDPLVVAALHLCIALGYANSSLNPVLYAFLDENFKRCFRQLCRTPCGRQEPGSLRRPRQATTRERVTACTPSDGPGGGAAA

Mu-type opioid receptor (Cavia porcellus), sequence (P97266 whole entry): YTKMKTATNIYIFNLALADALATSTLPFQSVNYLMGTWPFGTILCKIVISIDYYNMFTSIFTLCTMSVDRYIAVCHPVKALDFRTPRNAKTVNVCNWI
Mu-type opioid receptor, sequence (P97266 whole entry): as above
Delta-type opioid receptor (Mus musculus), sequence (P32300 whole entry): as the sequence (P32300 whole entry) above

inhibition [3]	inhibition [4]	Compound	pIC50 [1]	pIC50 [2]	pIC50 (Mu-type opioid receptor)	pIC50 [5]
		C[C@@H](NC(=O)[C@@H](N)Cc1ccc(O)cc1)C(=O)NCC(=O)N[C@@H](Cc1ccccc1)C(=O)NNC(=O)[C@H](Cc1ccccc1)NC(=O)CNC(=O)[C@@H](C)NC(=O)[C@@H](N)Cc1ccc(O)cc1 [BIPHALIN]	8.85	8.59		
		C[C@@H](NC(=O)[C@@H](N)Cc1ccc(O)cc1)C(=O)NCC(=O)N[C@@H](Cc1ccccc1)C(=O)Nc1ccccc1NC(=O)[C@H](Cc1ccccc1)NC(=O)CNC(=O)[C@@H](C)N[C@@H](N)Cc1ccc(O)cc1	8.71	9.72	7.40	9.14
17%	43%	N[C@H](Cc1ccc(O)cc1)C(=O)N[C@H](Cc1ccccc1)C(=O)Nc1ccc(NC(=O)[C@@H](Cc2ccccc2)NC(=O)[C@H](N)Cc2ccc(O)cc2)cc1	5.09	5.62		
		C[C@@H](NC(=O)[C@@H](N)Cc1ccc(O)cc1)C(=O)NCC(=O)N[C@@H](Cc1ccccc1)C(=O)N1CCN(C(=O)[C@H](Cc2ccccc2)NC(=O)CNC(=O)[C@@H](C)N[C@@H](N)Cc2ccc(O)cc2)CC1	9.32	9.19	8.60	8.03
		C[C@@H](NC(=O)[C@@H](N)Cc1ccc(O)cc1)C(=O)NCC(=O)N[C@@H](Cc1ccccc1)C(=O)Nc1ccc(NC(=O)[C@H](Cc2ccccc2)NC(=O)CNC(=O)[C@@H](C)N[C@@H](N)Cc2ccc(O)cc2)cc1	8.90	8.50	7.40	7.45
47%	61%	N[C@H](Cc1ccc(O)cc1)C(=O)N[C@H](Cc1ccccc1)C(=O)Nc1ccccc1NC(=O)[C@@H](Cc1ccccc1)NC(=O)[C@H](N)Cc1ccc(O)cc1	5.52	6.19		

Compound	inhibition [3]	inhibition [4]	pIC50 [1]	pIC50 [2]	pIC50 (Mu-type opioid receptor)	pIC50 [5]
N[C@H](Cc1ccc(O)cc1)C(=O)N[C@H](Cc1ccccc1)C(=O)N1CCN(C(=O)[C@@H](Cc2ccccc2)NC(=O)[C@H](N)Cc2ccc(O)cc2)CC1	8.1%	25.5%	5.57	6.40		
